This data set can be described thus: Clinical study, steady state PK (Cycle 1 Day 15) after daily oral tablets of example 1. Type of data set: in vivo, human. The conditions noted are these: for AUC(0-t) / Cmax / Tmax / half-life / AUC: human, in vivo; for Tmax: median (minimum-maximum); for half-life: read-out: T½ (converted). As for the experimental part:
Non-small cell lung cancer patients with EGFR T790M mutation were enrolled in a clinical study and received escalating doses of EGF816 ranging from 100 mg to 225 mg daily oral doses by using the tablets as described in example 1.

Where [1] appears, read: 150 mg qd (N = 6), geometric mean (CV %).
Setting [2] is: 200 mg qd (N = 7), geometric mean (CV %).
Where [3] appears, read: 225 mg qd (N = 7), geometric mean (CV %).
The mark [4] stands for this setting: 100 mg qd (N = 3), geometric mean (CV %).

Like-named read-outs stand apart in the source and are kept apart here.

Consider `Cc1cc(C(=O)Nc2nc3cccc(Cl)c3n2[C@@H]2CCCCN(C(=O)/C=C/CN(C)C)C2)ccn1` [EGF816, (R,E)-N-(7-chloro-1-(1-(4-(dimethylamino)but-2-enoyl)azepan-3-yl)-1H-benzo[d]imidazol-2-yl)-2-methylisonicotinamide], for which the CLss/F is on record as 238 (38) mL/min under setting [1], 247 (58) mL/min under setting [2] and 222 (37) mL/min under setting [3]. The AUC(0-t) (in general, the area under the concentration-time curve up to a stated or last time point) runs as follows: under setting [4], 9050 ng·h/mL; under setting [1], 10300 ng·h/mL; under setting [2], 13500 ng·h/mL; under setting [3], 12100 ng·h/mL. Further, the Cmax – broadly, the peak of the concentration-time curve – runs as follows: under setting [4], 519 ng/mL; under setting [1], 675 ng/mL; under setting [2], 939 ng/mL; under setting [3], 1270 ng/mL. The Tmax (as a rule, the time at which the peak concentration occurs) was determined as 6 h (100 mg qd (N = 3)), 5 h (150 mg qd (N = 6)), 3 h (200 mg qd (N = 7)) and 3 h (225 mg qd (N = 7)). For the same compound, the half-life by setting is: (100 mg qd (N = 3), only one value calculated) 14 h; under setting [1], 17 h; under setting [2], 13 h; under setting [3], 10 h. In addition, the AUC (usually concentration integrated over time) by setting is: under setting [1], 10500 ng·h/mL; under setting [2], 13500 ng·h/mL; under setting [3], 16900 ng·h/mL.
